Measurements taken from US5082828A, “Eclosion hormone peptides” (Sandoz Ltd., priority 1991, dated 1992).

Key:
[1] = tested on: pharate adult H. virescens; parameters: species or system Heliothis virescens; details: in vivo
Protocol: The biological activity of EH in fractions from each purification step is detected using a pharate adult H. virescens in vivo assay, similar to that described by Fugo (1983) Appl. Ent. Zoo. 18:540-44 and Truman (1973) Biol. Bull. 14:44:200-211, both of which are incorporated by reference. Insects are injected in the dorsal thorax with 5 μl aliquots dissolved in physiological saline, approximately 7 hr before normal eclosion, which occurs just after the onset of darkness. Moths eclosing within 3 hr of injection are scored as receiving EH, a positive response.

[2] = tested on: late second stadium M. sexta; format: in vivo, Manduca sexta
Protocol: The biological activity of isolated EH is assayed as follows. Late second stadium M. sexta are selected for assay when third stadium mandibles are visible through the fluid-filled second stadium head capsule. Development of these larvae, held at 31° C., is checked at 15 min intervals until an air bubble first appears in the head capsule. "Air bubble" larvae are immediately injected in the dorsal abdomen with 1 μl of the test fractions, and time to molt of treated and controls is compared at room temperature ~21° C.). Mean time to molt for EH-affected larvae is 50 min; that for controls is 109 min. Purified EH is active at 0.1 ng per pharate adult H. virescens, and at 0.01 ng per second stadium M. sexta.

larval molt = details: EH present in the hemolymph during a sensitive period when it is normally absent; cited from earlier work

Substance: Eclosion hormone [EH]
- dose evoking positive EH-like response (active dose) [1]: 0.1 ng per pharate adult
- mean time to molt ([2]; EH-affected larvae at room temperature ~21° C., controls 109 min): 50 min
- dose evoking positive EH-like response (active dose) ([2]; in vivo): 0.01 ng per second stadium M. sexta
- effect on larval molt (larval molt): block the larval molt completely
